Experimental data from US20230312587A1, “PTERIDINONE COMPOUNDS AND USES THEREOF” (Vertex Pharmaceutical Incorporated, priority 2018, published 2023).

test system: β-catenin-TCF-mediated reporter transcription activity in Colo 205 cells; test: Colo 205 reporter assay (TCF/LEF luciferase); format: cell-based; details: Homo sapiens, COLO 205, 5 h, Colo 205 TCF/LEF luciferase reporter, five hours after addition of compound; read-out: TCF reporter Colo205 IC50
In short: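 Luciferase signal from a TCF/LEF-driven reporter, stably integrated in Colo 205 colon cancer cells, was measured 5 h after compound addition.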

| SMILES | IC50 [nM] |
| --- | --- |
| Cc1nc(NCc2cnn(Cc3ccc(C(F)(F)F)nc3)c2)nc2c1NC(=O)[C@H]([C@@H](C)O)N2C [Compound 744, (S)-7-((R)-1-hydroxyethyl)-4,8-dimethyl-2-(((1-((6-(trifluoromethyl)pyridin-3-yl)methyl)-1H-pyrazol-4-yl)methyl)amino)-7,8-dihydropteridin-6(5H)-one] | 300 to 1000 |
| Cc1nc(NCc2cnn(Cc3cnccc3C(F)(F)F)c2)nc2c1NC(=O)[C@H](C)N2C [Compound 182, (7S)-4,7,8-trimethyl-2-(((1-((4-(trifluoromethyl)pyridin-3-yl)methyl)-1H-pyrazol-4-yl)methyl)amino)-7,8-dihydropteridin-6(5H)-one] | < 300 |
| Cc1nc(NC2CN(C(=O)COc3ccccc3C(F)(F)F)C2)nc2c1NC(=O)[C@H](C(C)C)N2C [Compound 612, (S)-7-isopropyl-4,8-dimethyl-2-((1-(2-(2-(trifluoromethyl)phenoxy)acetyl)azetidin-3-yl)amino)-7,8-dihydropteridin-6(5H)-one] | < 300 |
| Cc1nc(N[C@H]2C[C@@H](Nc3ccnc(C(F)(F)F)n3)C2)nc2c1NC(=O)[C@H](C(C)C)N2C [Compound 539, (S)-7-isopropyl-4,8-dimethyl-2-((cis-3-((2-(trifluoromethyl)pyrimidin-4-yl)amino)cyclobutyl)amino)-7,8-dihydropteridin-6(5H)-one] | 300 to 1000 |
| Cc1nc(N[C@H]2C[C@H](Oc3ccc(F)nc3)C2)nc2c1N(C)C(=O)[C@H](C)N2C [Compound 358, (7S)-2-((trans 3-((6-fluoropyridin-3-yl)oxy)cyclobutyl)amino)-4,5,7,8-tetramethyl-7,8-dihydropteridin-6(5H)-one] | 1000 to 5000 |
| Cc1nc(N[C@H]2CO[C@@H](COc3cc(F)c(F)c(F)c3)C2)nc2c1NC(=O)[C@H](C)N2C [Compound 309, (7S)-4,7,8-trimethyl-2-(((3R,5R)-5-((3,4,5-trifluorophenoxy)methyl)-tetrahydrofuran-3-yl)amino)-7,8-dihydropteridin-6(5H)-one] | 300 to 1000 |
| Cc1nc(NCc2cnn(Cc3ccc(OC(F)F)nc3)c2)nc2c1NC(=O)[C@H](C(C)C)N2C [Compound 422, (7S)-2-(((1-((6-(difluoromethoxy)pyridin-3-yl)methyl)-1H-pyrazol-4-yl)methyl)amino)-7-isopropyl-4,8-dimethyl-7,8-dihydropteridin-6(5H)-one] | < 300 |
| Cc1nc(NCc2cnn(Cc3ccc(F)c(F)c3F)c2)nc2c1N(C)C(=O)[C@H](C)N2C [Compound 17, (7S)-4,5,7,8-tetramethyl-2-(((1-(2,3,4-trifluorobenzyl)-1H-pyrazol-4-yl)methyl)amino)-7,8-dihydropteridin-6(5H)-one] | < 300 |
| COc1cc(Cn2cc(CNc3nc(C)c4c(n3)N(C)[C@@H](C)C(=O)N4)cn2)ccc1F [Compound 75, (7S)-2-(((1-(4-fluoro-3-methoxybenzyl)-1H-pyrazol-4-yl)methyl)amino)-4,7,8-trimethyl-7,8-dihydropteridin-6(5H)-one] | < 300 |
| CCn1ccnc1Cn1cc(CNc2nc(C)c3c(n2)N(C)[C@@H](C)C(=O)N3)cn1 [Compound 191, (7S)-2-(((1-((1-ethyl-1H-imidazol-2-yl)methyl)-1H-pyrazol-4-yl)methyl)amino)-4,7,8-trimethyl-7,8-dihydropteridin-6(5H)-one] | 1000 to 5000 |
| Cc1nc(N[C@H](C)c2cnn(Cc3ccc(C(F)(F)F)nc3)c2)nc2c1NC(=O)[C@H](C)N2C [Compound 217, (7S)-4,7,8-Trimethyl-2-(((R)-1-(1-((6-(trifluoromethyl)pyridin-3-yl)methyl)-1H-pyrazol-4-yl)ethyl)amino)-7,8-dihydropteridin-6(5H)-one] | ≥ 5000 |
| Cc1nc(N[C@H]2C[C@@H](Nc3cc(C(F)(F)F)ccn3)C2)nc2c1NC(=O)[C@H](C(C)C)N2C [Compound 561, (S)-7-isopropyl-4,8-dimethyl-2-((cis-3-((4-(trifluoromethyl)pyridin-2-yl)amino)cyclobutyl)amino)-7,8-dihydropteridin-6(5H)-one] | < 300 |
| Cc1nc(N[C@H]2C[C@H](Oc3ccc(OC(F)(F)F)cc3)C2)nc2c1NC(=O)[C@H](C)N2C [Compound 326, (7S)-4,7,8-trimethyl-2-((trans-3-(4-(trifluoromethoxy)phenoxy)-cyclobutyl)amino)-7,8-dihydropteridin-6(5H)-one] | < 300 |
| Cc1nc(NC2CN(C(=O)c3ncccn3)C2)nc2c1NC(=O)[C@H](C(C)C)N2C [Compound 640, (S)-7-isopropyl-4,8-dimethyl-2-((1-(pyrimidine-2-carbonyl)azetidin-3-yl)amino)-7,8-dihydropteridin-6(5H)-one] | ≥ 5000 |
| Cc1nc(N[C@H]2C[C@H](Oc3cc(F)c(F)c(F)c3)C2)nc2c1N(CC(F)(F)F)C(=O)[C@H](C)N2C [Compound 313, (7S)-4,7,8-trimethyl-5-(2,2,2-trifluoroethyl)-2-((trans-3-(3,4,5-trifluorophenoxy)cyclobutyl)-amino)-7,8-dihydropteridin-6(5H)-one] | ≥ 5000 |
| COCC1(C)C(=O)Nc2c(C)nc(N[C@H]3C[C@H](Oc4cc(F)c(F)c(F)c4)C3)nc2N1C (relative stereo) [Compound 719, 7-(methoxymethyl)-4,7,8-trimethyl-2-((trans-3-(3,4,5-trifluorophenoxy)cyclobutyl)amino)-7,8-dihydropteridin-6(5H)-one] | < 300 |
| Cc1nc(N[C@H]2C[C@H](Oc3cc(F)c(F)c(F)c3)C2)nc2c1N(CCF)C(=O)[C@H](C)N2C [Compound 381, (7S)-5-(2-fluoroethyl)-4,7,8-trimethyl-2-((trans-3-(3,4,5-trifluorophenoxy)-cyclobutyl)-amino)-7,8-dihydropteridin-6(5H)-one] | 300 to 1000 |
| Cc1nc(N[C@@H]2CCc3c2cnn3Cc2ccc(C(F)(F)F)nc2)nc2c1NC(=O)[C@H](C(C)C)N2C [Compound 520, (S)-7-isopropyl-4,8-dimethyl-2-(((R)-1-((6-(trifluoromethyl)pyridin-3-yl)methyl)-1,4,5,6-tetrahydrocyclopenta[c]pyrazol-4-yl)amino)-7,8-dihydropteridin-6(5H)-one] | ≥ 5000 |
| Cc1nc(N[C@H]2C[C@@H](Cn3nccc3C(F)(F)F)C2)nc2c1NC(=O)[C@H](C(C)C)N2C [Compound 512, (S)-7-isopropyl-4,8-dimethyl-2-((cis-3-((5-(trifluoromethyl)-1H-pyrazol-1-yl)methyl)cyclobutyl)amino)-7,8-dihydropteridin-6(5H)-one] | < 300 |

same assay, conditions: Homo sapiens, COLO 205, 5 h, Colo 205 cells with stably transfected TCF/LEF luciferase reporter; five hours after addition of compound; read-out: TCF reporter Colo205

| SMILES | IC50 [nM] |
| --- | --- |
| COC(=O)N(Cc1cnn(Cc2ccc(C(F)(F)F)nc2)c1)c1nc(C)c2c(n1)N(C)[C@@H](C)C(=O)N2 [Compound 407, methyl (7S)-((1-((6-(trifluoromethyl)pyridin-3-yl)methyl)-1H-pyrazol-4-yl)methyl)(4,7,8-trimethyl-6-oxo-5,6,7,8-tetrahydropteridin-2-yl)carbamate] | ≥ 5000 |
| Cc1nc(N(Cc2cnn(Cc3ccc(C(F)(F)F)nc3)c2)C(=O)CN)nc2c1NC(=O)[C@H](C)N2C [Compound 406, (7S)-2-amino-N-((1-((6-(trifluoromethyl)pyridin-3-yl)methyl)-1H-pyrazol-4-yl)methyl)-N-(4,7,8-trimethyl-6-oxo-5,6,7,8-tetrahydropteridin-2-yl)acetamide] | ≥ 5000 |

same assay, conditions: Homo sapiens, COLO 205, 5 h, R-isomer at C2 (corresponding to C2 S-isomer); Colo 205 TCF/LEF luciferase reporter, 5 h; read-out: TCF reporter Colo205 IC50

| SMILES | IC50 [nM] |
| --- | --- |
| CC[C@@H]1C(=O)N(C)c2cnc(NCc3cnn(Cc4cc(F)c(F)c(F)c4)c3)nc2N1C(C)C [Compound I-1465] | < 300 |
